Data taken from patent US8871753B2, “Macrocyclic compounds and their use as kinase inhibitors” (Incyte Corporation, priority 2008, dated 2014).
pIC50: −log10 of the molar value. Structures can show the parent of a compound that is named as a salt. Where two headings read alike, the source gives them in different places.

Assays:
Assay type in all cases: biochemical
[1] = biological target: TYK2 (Homo sapiens, UniProt P29597); experiment: TYK2 kinase inhibition (Table A1)
[2] = biological target: T1, human JAK2 (a.a. 828-1132) (Homo sapiens, UniProt O60674); experiment: In vitro JAK kinase assay (HTRF, phosphorylation of a biotinylated peptide), JAK2
T1 construct: JAK2 (a.a. 828-1132); His tag (N); made in house; host or cells: insect cells (baculovirus)
How it was run: (§1)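 Kinase reactions ran at room temperature for 1 h with ATP matched per isoform (JAK1 90 μM, JAK2 30 μM, JAK3 3 μM). After an EDTA stop, the phosphorylated biotin-peptide was read by HTRF using Eu-Py20 and SA-APC after 40 min binding.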

[3] = biological target: T2, human JAK3 (a.a. 781-1124) (Homo sapiens, UniProt P52333); experiment: In vitro JAK kinase assay (HTRF, phosphorylation of a biotinylated peptide), JAK3
T2 construct: JAK3 (a.a. 781-1124); His tag (N); made in house; host or cells: insect cells (baculovirus)
How it was run: as §1

[4] = biological target: T3, human JAK1 (a.a. 837-1142) (Homo sapiens, UniProt P23458); experiment: In vitro JAK kinase assay (HTRF, phosphorylation of a biotinylated peptide), JAK1; conditions: read-out: JAK1 IC50
T3 construct: human JAK1 (a.a. 837-1142); His tag (N); made in house; host or cells: insect cells (baculovirus)
How it was run: as §1

[5] = biological target: T4, Recombinant Human Anaplastic Lymphoma Kinase (Homo sapiens, UniProt Q9UM73); experiment: ALK HTRF kinase assay
T4 construct: purchased Invitrogen, Carlsbad, Calif
How it was run: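 TR-FRET read-out (Eu anti-pTyr antibody + streptavidin-APC) of biotin-peptide phosphorylation by recombinant human enzyme; IC50 by sigmoidal fit with top/bottom baselines and Hill slope.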

[6] = Table B1, cells without percent sign
[7] = method AA1 (30 μM ATP) or AA2 (1000 μM ATP), not stated per value
[8] = method AA1 (3 μM ATP) or AA2 (1000 μM ATP), not stated per value
[9] = method AA1 (90 μM ATP) or AA2 (1000 μM ATP), not stated per value
[10] = compound at 500 nM or 1 mM, 90 μM ATP

T4 sequence (Q9UM73 19-1620): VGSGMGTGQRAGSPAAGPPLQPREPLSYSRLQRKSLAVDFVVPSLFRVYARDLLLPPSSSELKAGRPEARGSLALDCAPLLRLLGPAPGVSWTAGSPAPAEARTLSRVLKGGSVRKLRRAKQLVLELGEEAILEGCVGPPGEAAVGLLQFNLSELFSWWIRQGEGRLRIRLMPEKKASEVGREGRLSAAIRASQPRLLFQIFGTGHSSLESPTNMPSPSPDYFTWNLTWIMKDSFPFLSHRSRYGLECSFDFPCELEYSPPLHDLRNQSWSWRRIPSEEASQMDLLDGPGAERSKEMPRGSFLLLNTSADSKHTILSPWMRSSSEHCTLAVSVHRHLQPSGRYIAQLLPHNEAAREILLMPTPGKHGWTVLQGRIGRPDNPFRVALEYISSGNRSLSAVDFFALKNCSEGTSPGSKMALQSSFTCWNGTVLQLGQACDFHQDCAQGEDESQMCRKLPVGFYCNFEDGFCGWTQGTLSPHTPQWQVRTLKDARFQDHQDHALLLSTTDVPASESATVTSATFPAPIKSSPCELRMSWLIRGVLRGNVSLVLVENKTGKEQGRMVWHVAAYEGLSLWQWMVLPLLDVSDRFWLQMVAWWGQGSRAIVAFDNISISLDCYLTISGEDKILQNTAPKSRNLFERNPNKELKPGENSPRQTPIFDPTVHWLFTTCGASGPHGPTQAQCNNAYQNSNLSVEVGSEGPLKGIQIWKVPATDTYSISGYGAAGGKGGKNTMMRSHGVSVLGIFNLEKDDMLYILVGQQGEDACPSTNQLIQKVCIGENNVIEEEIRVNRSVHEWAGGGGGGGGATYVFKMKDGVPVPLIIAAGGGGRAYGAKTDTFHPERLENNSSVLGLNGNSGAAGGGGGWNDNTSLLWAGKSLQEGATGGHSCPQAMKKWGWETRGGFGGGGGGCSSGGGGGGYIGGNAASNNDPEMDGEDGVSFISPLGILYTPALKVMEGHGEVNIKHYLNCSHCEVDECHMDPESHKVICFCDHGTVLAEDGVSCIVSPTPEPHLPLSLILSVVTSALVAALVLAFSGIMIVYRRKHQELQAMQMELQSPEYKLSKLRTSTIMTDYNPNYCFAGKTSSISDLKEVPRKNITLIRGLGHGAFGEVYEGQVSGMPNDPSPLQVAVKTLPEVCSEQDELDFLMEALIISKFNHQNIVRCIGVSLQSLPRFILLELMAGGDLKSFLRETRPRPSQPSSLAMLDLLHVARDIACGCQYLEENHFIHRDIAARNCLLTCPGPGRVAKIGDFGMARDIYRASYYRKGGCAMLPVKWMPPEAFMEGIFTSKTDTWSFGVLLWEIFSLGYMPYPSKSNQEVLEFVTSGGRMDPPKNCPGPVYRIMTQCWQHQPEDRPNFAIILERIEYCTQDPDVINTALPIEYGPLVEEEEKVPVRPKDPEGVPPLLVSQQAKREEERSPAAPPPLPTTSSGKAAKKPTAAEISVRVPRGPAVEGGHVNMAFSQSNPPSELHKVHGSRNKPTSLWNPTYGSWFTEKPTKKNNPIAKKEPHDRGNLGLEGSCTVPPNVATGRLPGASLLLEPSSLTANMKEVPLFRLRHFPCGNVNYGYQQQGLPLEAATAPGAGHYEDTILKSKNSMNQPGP
Chain of TYK2 (P29597 whole entry): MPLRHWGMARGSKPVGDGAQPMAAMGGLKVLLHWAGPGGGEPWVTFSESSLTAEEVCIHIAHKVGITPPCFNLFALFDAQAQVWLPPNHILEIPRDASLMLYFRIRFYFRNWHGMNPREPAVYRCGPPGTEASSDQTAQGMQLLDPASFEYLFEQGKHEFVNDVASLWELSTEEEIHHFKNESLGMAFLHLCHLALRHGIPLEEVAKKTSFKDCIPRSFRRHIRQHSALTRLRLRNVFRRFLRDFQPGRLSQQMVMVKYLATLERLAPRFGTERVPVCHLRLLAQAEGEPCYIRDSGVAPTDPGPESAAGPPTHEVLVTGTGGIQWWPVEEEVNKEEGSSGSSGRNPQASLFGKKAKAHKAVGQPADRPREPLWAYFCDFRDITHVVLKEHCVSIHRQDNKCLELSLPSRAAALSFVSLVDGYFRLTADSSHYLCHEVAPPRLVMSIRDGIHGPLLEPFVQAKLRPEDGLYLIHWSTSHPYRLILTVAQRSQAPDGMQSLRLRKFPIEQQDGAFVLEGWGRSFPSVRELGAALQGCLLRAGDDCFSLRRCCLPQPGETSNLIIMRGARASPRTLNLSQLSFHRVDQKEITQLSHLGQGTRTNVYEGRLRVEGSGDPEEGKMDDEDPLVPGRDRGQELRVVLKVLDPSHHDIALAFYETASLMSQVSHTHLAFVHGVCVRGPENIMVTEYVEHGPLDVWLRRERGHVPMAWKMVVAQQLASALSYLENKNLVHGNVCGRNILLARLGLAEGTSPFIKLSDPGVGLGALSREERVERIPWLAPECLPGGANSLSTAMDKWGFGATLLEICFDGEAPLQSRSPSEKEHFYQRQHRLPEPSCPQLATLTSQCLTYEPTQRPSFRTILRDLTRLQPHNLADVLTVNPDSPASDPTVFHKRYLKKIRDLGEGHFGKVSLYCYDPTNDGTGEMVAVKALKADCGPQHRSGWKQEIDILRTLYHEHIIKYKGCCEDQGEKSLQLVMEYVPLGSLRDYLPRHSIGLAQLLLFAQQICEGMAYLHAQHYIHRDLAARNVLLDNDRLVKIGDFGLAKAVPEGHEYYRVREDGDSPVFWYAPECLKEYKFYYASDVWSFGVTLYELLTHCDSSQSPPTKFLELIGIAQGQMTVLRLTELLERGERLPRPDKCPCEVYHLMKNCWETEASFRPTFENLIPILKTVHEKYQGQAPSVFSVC
T1 sequence (O60674 828-1132): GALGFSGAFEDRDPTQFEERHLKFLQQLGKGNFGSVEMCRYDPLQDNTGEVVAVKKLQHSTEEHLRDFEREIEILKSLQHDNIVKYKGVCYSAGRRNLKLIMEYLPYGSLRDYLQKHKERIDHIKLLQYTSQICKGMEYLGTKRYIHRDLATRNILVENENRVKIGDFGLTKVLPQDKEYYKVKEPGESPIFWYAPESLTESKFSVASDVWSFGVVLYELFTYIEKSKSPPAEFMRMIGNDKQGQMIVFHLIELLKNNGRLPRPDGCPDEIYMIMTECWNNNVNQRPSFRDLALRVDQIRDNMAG
T3 sequence (P23458 849-1154): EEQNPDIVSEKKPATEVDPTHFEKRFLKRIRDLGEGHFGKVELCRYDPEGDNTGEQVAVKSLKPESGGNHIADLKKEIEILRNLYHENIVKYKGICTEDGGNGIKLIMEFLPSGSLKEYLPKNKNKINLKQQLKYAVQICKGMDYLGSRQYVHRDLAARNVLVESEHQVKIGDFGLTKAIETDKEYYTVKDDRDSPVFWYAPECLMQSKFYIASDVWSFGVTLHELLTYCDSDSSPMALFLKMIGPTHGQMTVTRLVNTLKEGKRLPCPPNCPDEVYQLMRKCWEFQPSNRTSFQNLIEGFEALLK
T2 sequence (P52333 781-1124): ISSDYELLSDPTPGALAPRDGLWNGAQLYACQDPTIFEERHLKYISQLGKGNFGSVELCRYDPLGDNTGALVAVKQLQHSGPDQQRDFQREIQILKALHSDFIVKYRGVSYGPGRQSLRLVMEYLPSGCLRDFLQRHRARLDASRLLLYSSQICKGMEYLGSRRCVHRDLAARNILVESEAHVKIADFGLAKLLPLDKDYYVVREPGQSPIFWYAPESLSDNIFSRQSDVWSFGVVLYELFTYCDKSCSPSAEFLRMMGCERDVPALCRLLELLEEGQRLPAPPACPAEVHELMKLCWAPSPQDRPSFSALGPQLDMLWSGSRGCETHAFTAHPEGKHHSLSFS

SMILES	pIC50 [1]	pIC50 [2, 7]	pIC50 [3, 8]	pIC50 [4, 9]	ALK % of inhibition at a concentration of 500 nM or 1 mM [5, 10]	further results
Clc1cnc2nc1Nc1cc(cc(CN3CCN(Cc4cc(Br)cs4)CC3)c1)CCc1cccc(c1)N2 [Example B196, 11-({4-[(4-Bromo-2-thienyl)methyl]piperazin-1-yl}methyl)-6-chloro-2,4,8,22-tetraazatetracyclo[14.3.1.1(3,7).1(9,13)]docosa-1(20),3(22),4,6,9(21),10,12,16,18-nonaene tris(trifluoroacetate)]						pIC50 ([1]; Table B1): 6.95; pIC50 ([2]; Table B1): 9.06; pIC50 ([3]; Table B1): 7.32; pIC50 ([4]; Table B1): 8.46; pIC50 [5, 6]: < 5.00
O=C(CN1CCN(c2nc3cccnc3o2)CC1)Nc1ccc2cc1CCc1cncc(c1)Nc1ncc(Cl)c(n1)N2 [Example A118, N-[6-Chloro-2,4,8,18,22-pentaazatetracyclo[14.3.1.1(3,7).1(9,13)]docosa-1(20),3(22),4,6,9(21),10,12,16,18-nonaen-12-yl]-2-(4-[1,3]oxazolo[5,4-b]pyridin-2-ylpiperazin-1-yl)acetamide tris(trifluoroacetate)]	7.70	7.80	6.82	9.05	29%	
O=C1Nc2cccc(c2)Nc2ncc(Cl)c(n2)Nc2cccc1c2 [Example C1, 6-Chloro-2,4,8,15,22-pentaazatetracyclo[14.3.1.1(3,7).1(9,13)]docosa-1(20),3(22),4,6,9(21),10,12,16,18-nonaen-14-one hydrochloride]	< 6.00					pIC50 [2]: 6.05; pIC50 [3]: < 6.00; pIC50 [4]: < 6.00; pIC50 [5]: < 5.00
CS(=O)(=O)Nc1ccc2cc1CCc1cccc(c1)Nc1ncc(Cl)c(n1)N2 [Example B140, N-[6-Chloro-2,4,8,22-tetraazatetracyclo[14.3.1.1(3,7).1(9,13)]docosa-1(20), 3(22),4,6,9(21),10,12,16,18-nonaen-12-yl]methanesulfonamide trifluoroacetate]						pIC50 ([1]; Table B1): 9.05; pIC50 ([2]; Table B1): 9.70; pIC50 ([3]; Table B1): 8.89; pIC50 ([4]; Table B1): 9.29; pIC50 [5, 6]: 6.82
CC(C)NC(=O)Nc1ccc2cc1CCc1cccc(c1)Nc1ncc(Cl)c(n1)N2 [Example B116, N-[6-Chloro-2,4,8,22-tetraazatetracyclo[14.3.1.1(3,7).1(9,13)]docosa-1(20), 3(22),4,6,9(21),10,12,16,18-nonaen-12-yl]-N′-isopropylurea trifluoroacetate]						pIC50 ([1]; Table B1): 8.00; pIC50 ([2]; Table B1): 8.46; pIC50 ([3]; Table B1): 7.59; pIC50 ([4]; Table B1): 8.51; ALK % of inhibition at a concentration of 500 nM or 1 mM ([5]; compound at a concentration of 500 nM or 1 mM (not specified), cells shown as percentage): 20%
CC(C)(C)NS(=O)(=O)c1cc2cc(c1)Nc1nc(ncc1Br)Nc1cccc(c1)CC2 [Example B17, 6-Bromo-N-(tert-butyl)-2,4,8,22-tetraazatetracyclo[14.3.1.1(3,7).1(9,13)]docosa-1(20),3(22),4,6,9(21),10,12,16,18-nonaene-11-sulfonamide trifluoroacetate]						pIC50 ([1]; Table B1): 6.82; pIC50 ([2]; Table B1): 7.96; pIC50 ([3]; Table B1): 6.90; pIC50 ([4]; Table B1): 7.15; pIC50 [5, 6]: < 5.00
Clc1cnc2nc1Nc1cccc(c1)OCCc1cc(cc(-c3ccc(N4CCNCC4)nc3)c1)N2 [Example D33, 6-Chloro-19-(6-piperazin-1-ylpyridin-3-yl)-14-oxa-2,4,8,23-tetraazatetracyclo[15.3.1.1(3,7).1(9,13)]tricosa-1(21),3(23),4,6,9(22),10,12,17,19-nonaene tris(trifluoroacetate)]						pIC50 ([1]; Table D1): 8.40; pIC50 ([2]; Table D1): 9.15; pIC50 ([3]; Table D1): 7.92; pIC50 ([4]; Table D1): 8.74; pIC50 ([5]; Table D1, 90 μM ATP): 6.97
O=C(NCc1ccco1)Nc1cc2cc(c1)OCCSc1cccc(c1)Nc1nc(ncc1Cl)N2 [Example D67, N-[6-Chloro-17-oxa-14-thia-2,4,8,24-tetraazatetracyclo[16.3.1.1(3,7).1(9,13)]tetracosa-1(22),3(24),4,6,9(23),10,12,18,20-nonaen-20-yl]-N′-(2-furylmethyl)urea trifluoroacetate]						pIC50 ([1]; Table D1): 8.62; pIC50 ([2]; Table D1): 8.74; pIC50 ([3]; Table D1): 8.08; pIC50 ([4]; Table D1): 8.49; pIC50 ([5]; Table D1, 90 μM ATP): < 6.00

Further lines, with some results ahead:

pIC50 [1]	pIC50 [2, 7]	pIC50 [3, 8]	pIC50 [4, 9]	ALK % of inhibition at a concentration of 500 nM or 1 mM [5, 10]	SMILES	further results
7.35	7.44	6.65	8.18	20%	Cc1oncc1C(=O)N1CCC(CC(=O)Nc2ccc3cc2CCc2cncc(c2)Nc2ncc(Cl)c(n2)N3)CC1 [Example A131, N-[6-Chloro-2,4,8,18,22-pentaazatetracyclo[14.3.1.1(3,7).1(9,13)]docosa-1(20),3(22),4,6,9(21),10,12,16,18-nonaen-12-yl]-2-{1-[(5-methylisoxazol-4-yl)carbonyl]piperidin-4-yl}acetamide bis(trifluoroacetate)]	
7.09	7.52	< 6.70	8.06	50%	Cc1cc(N2CCC(CC(=O)Nc3ccc4cc3CCc3cccc(c3)Nc3ncc(Cl)c(n3)N4)CC2)no1 [Example A248, N-[6-Chloro-2,4,8,22-tetraazatetracyclo[14.3.1.1(3,7).1(9,13)]docosa-1(20),3(22),4,6,9(21),10,12,16,18-nonaen-12-yl]-2-[1-(5-methylisoxazol-3-yl)piperidin-4-yl]acetamide trifluoroacetate]	
6.59	6.89	< 6.40	7.82	50%	Cc1nc(S(=O)(=O)N2CCC(CC(=O)Nc3ccc4cc3CCc3cncc(c3)Nc3ncc(Cl)c(n3)N4)CC2)cn1C [Example A230, N-[6-Chloro-2,4,8,18,22-pentaazatetracyclo[14.3.1.1(3,7).1(9,13)]docosa-1(20),3(22),4,6,9(21),10,12,16,18-nonaen-12-yl]-2-{1-[(1,2-dimethyl-1H-imidazol-4-yl)sulfonyl]piperidin-4-yl}acetamide bis(trifluoroacetate)]	
< 6.70	< 6.70	< 6.70	7.21	33%	O=C(CC1CCN(C(=O)c2ccncc2)CC1)Nc1ccc2cc1CCc1cccc(c1)Nc1ncc(Cl)c(n1)N2 [Example A185, N-[6-Chloro-2,4,8,22-tetraazatetracyclo[14.3.1.1(3,7).1(9,13)]docosa-1(20),3(22),4,6,9(21),10,12,16,18-nonaen-12-yl]-2-(1-isonicotinoylpiperidin-4-yl)acetamide bis(trifluoroacetate)]	
6.64	7.21	7.09	7.38	38%	O=C(Nc1ccc2cc1CCc1cccc(c1)Nc1ncc(Cl)c(n1)N2)C1CCN(C(=O)Cc2ccccc2)CC1 [Example A35, N-[6-Chloro-2,4,8,22-tetraazatetracyclo[14.3.1.1(3,7).1(9,13)]docosa-1(20),3(22),4,6,9(21),10,12,16,18-nonaen-12-yl]-1-(phenylacetyl)piperidine-4-carboxamide trifluoroacetate]	
7.21	7.42	6.62	8.10	20%	CC(C)(C)C(=O)N1CCC(CC(=O)Nc2ccc3cc2CCc2cncc(c2)Nc2ncc(Cl)c(n2)N3)CC1 [Example A112, N-[6-Chloro-2,4,8,18,22-pentaazatetracyclo[14.3.1.1(3,7).1(9,13)]docosa-1(20),3(22),4,6,9(21),10,12,16,18-nonaen-12-yl]-2-[1-(2,2-dimethylpropanoyl)piperidin-4-yl]acetamide bis(trifluoroacetate)]	
